Series [1] in a line: Dog pharmacokinetic (PK) study, single oral administration. It is filed as in vivo, Beagle dogs. The note with it: dog, in vivo; for AUC0-24, Total Pio / AUC0-24, Total R-pio / AUC0-24, Total S-pio / Cmax, Total Pio / Cmax, Total R-pio / Cmax, Total S-pio / T1/2z, Total Pio / T1/2z, Total R-pio / T1/2z, Total S-pio / Tmax, Total Pio / Tmax, Total R-pio / Tmax, Total S-pio: po. The procedure: The 3 Beagle male dogs were fasted before dosing. Then all test drugs were administered by the oral route using API in a capsule. [table] Food was given no sooner than one hour after dose administration on the days of treatment. Each administration was separated by a wash-out period of at least 2 days. […] Predose (just before dosing) and then […] after dosing.

Series [2] in a line: 13-week dog toxicology study, toxicokinetics on day 91. Conditions: Day 91, 10 mg/kg/day.
The next series in a line: in vivo. The note with it: beagle, dog, plasma, po, 10 mg/kg/day.
The nature of series [3]: pH-dependent solubility of crystalline salts (48 h equilibration, HPLC). Type of series: physicochemical. Conditions: for Solubility: room temperature, 48 hours; for solubility at 48 h: 22 °C, thermodynamic from solid. The procedure: The pH-dependent solubility profiles of the crystalline DCl salt form of deuterium-enriched (R)-pioglitazone, and crystalline pioglitazone HCl were determined at room temperature (about 21° C. to about 23° C.) in the pH range of 0.3-7.6. For the crystalline HCl salt form of deuterium-enriched (R)-pioglitazone, the pH-dependent solubility profile was measured at room temperature (about 21° C. to about 23° C.) in the pH range of 0.3-3.5.
For the crystalline DCl salt form of deuterium-enriched pioglitazone, the pH-dependent solubility profile was measured at room temperature (about 21° C. to about 23° C.) in the pH range of 0.7-3.5.
Suspensions of the three crystalline forms were prepared in water or USP buffer solutions. The pH of the suspensions was adjusted through the addition of 0.1 M HCl or 0.1 M NaOH. For the preparation of suspensions with a pH of 0.5 or lower, the pH was adjusted using 1 M HCL.
The suspensions were then allowed to equilibrate at room temperature (about 21° C. to about 23° C.) for 48 hours. After equilibration the solid phases were separated from the liquid phases by centrifugation, subsequently dried and then analyzed by XRPD. The concentration of deuterium-enriched (R)-pioglitazone or pioglitazone in the liquid phases (mother liquors) was determined by HPLC (see HPLC method described in Example 5).

Series [4] can be described thus: Solubility of crystalline DCl salt in various solvents (suspension, HPLC). Type of series: physicochemical. Conditions: 24 hours at room temperature. The source says:
Aliquots of the mother liquor were then taken from each suspension and analyzed by HPLC to determine the concentration of deuterium-enriched (R)-pioglitazone in the different solvents. [table]

Series [5] is described as follows: Solubility of crystalline HCl salt in various solvents (visual dissolution). Type of series: physicochemical. Conditions: 22 °C, thermodynamic from solid, ambient temperature, visual inspection. The procedure: […]; (ii) the resulting mixtures were then stirred at ambient temperature (about 21° C. to about 23° C.) for 5-10 minutes; (iii) the mixtures were then visually inspected to determine if the crystalline HCl salt had completely dissolved; (iv) if the crystalline HCl salt had not completely dissolved more solvent was added until complete dissolution occurred. Quantitative testing: (i) 100 mg of crystalline HCl salt was added to 4 vol. of each solvent (0.4 mL) dimethylformamide, methanol and DMSO; (ii) the resulting mixtures were then stirred at ambient temperature (about 20° C. to about 25° C.) for 5-10 minutes; (iii) the mixtures were then visually inspected to determine if the crystalline HCl salt had completely dissolved; (iv) if the crystalline HCl salt had not completely dissolved more solvent was added until complete dissolution occurred.
The solubilities were then calculated using the total quantity of crystalline HCl salt and solvent used for each solvent.

[6] abbreviates: Water, filtered mother liquor pH 1.6.
Setting [7] is: pH 1.6, simulated gastric fluid.

Where a name gives a salt, the structure may show the parent alone. Read-outs that look alike come from different tables or passages of the source. Marks after values point to notes of the source that are not given here.

The term AUC(0-t) denotes the area under the concentration-time curve up to a stated or last time point. Low values mean less exposure, high ones more exposure. For orientation: Solubility means how much of the substance goes into solution per volume. As a reminder, the solubility is the concentration that dissolves in the medium under given conditions.

Consider `[2H]C1(Cc2ccc(OCCc3ccc(CC)cn3)cc2)SC(=O)NC1=O` (racemic) [PXL061, deuterium-enriched pioglitazone], for which the “Frel vs PXL061 (relative oral bioavailability), Total Pioglitazone” value in series [1] is given as 1. Moreover, in series [1] (10 mg/kg), the “AUC0-24, Total Pio” value amounted to 4800 ng·h/mL; the “AUC0-24, Total R-pio” value stood at 2650 ng·h/mL; the “AUC0-24, Total S-pio” value was found to be 2150 ng·h/mL; the “Cmax, Total Pio” value is reported as 1310 ng/mL. Besides, in series [1] (10 mg/kg), the “Cmax, Total R-pio” value turned out to be 638 ng/mL; the “Cmax, Total S-pio” value came out at 683 ng/mL; the “T1/2z, Total Pio” value was 4.03 h; the “T1/2z, Total R-pio” value was found to be 2.78 h. Further, in series [1] (10 mg/kg), the “T1/2z, Total S-pio” value came out at 3.61 h; the “Tmax, Total Pio” value worked out at 1 h; the “Tmax, Total R-pio” value amounted to 1 h; the “Tmax, Total S-pio” value is on record as 1 h.
For `CCc1ccc(CCOc2ccc(CC3SC(=O)NC3=O)cc2)nc1` (racemic) [Pioglitazone], the entries for the “AUC0-24, ss dose normalized, total pioglitazone” value in series [2] (female dogs (F)) and in series [2] (male dogs (M)) were 562 ng·h/mL and 297 ng·h/mL, respectively. Besides, the results for the AUC(0-t) in the series “in vivo” (female) and in “in vivo” (male) were 5620 ng·h/mL and 2970 ng·h/mL, respectively.
For `[2H]Cl.[2H]N1C(=O)SC([2H])(Cc2ccc(OCCc3ccc(CC)cn3)cc2)C1=O` (racemic) [deuterium-enriched pioglitazone], the Solubility in series [3] (Water, filtered mother liquor pH 0.7) was 5240 µg/mL; in series [3] (Water, filtered mother liquor pH 0.9), 2490 µg/mL; in series [3] (Water, filtered mother liquor pH 1.1), 1630 µg/mL; in series [3] (setting [6]), 420 µg/mL; in series [3] (Water, filtered mother liquor pH 3.1), below 30 µg/mL; in series [3] (Water, filtered mother liquor pH 4.8), below 30 µg/mL. Moreover, in series [3] (pH range 0.7-3.5), the “pH-dependent solubility behavior (in words)” value was “behavior similar to that of pioglitazone HCl”.
For `[2H][C@@]1(Cc2ccc(OCCc3ccc(CC)cn3)cc2)SC(=O)NC1=O` [PXL064, deuterium-enriched (S)-pioglitazone], in series [1] (5 mg/kg), the “AUC0-24, Total Pio” value stood at 1410 ng·h/mL; the “AUC0-24, Total R-pio” value was 203 ng·h/mL; the “AUC0-24, Total S-pio” value worked out at 1200 ng·h/mL; the “Cmax, Total Pio” value stood at 588 ng/mL. In series [1] (5 mg/kg), the “Cmax, Total R-pio” value turned out to be 54.0 ng/mL; the “Cmax, Total S-pio” value was 538 ng/mL; the “T1/2z, Total Pio” value was 1.73 h; the “T1/2z, Total R-pio” value is 1.91^a h. In series [1] (5 mg/kg), the “T1/2z, Total S-pio” value is 1.75 h; the “Tmax, Total Pio” value amounted to 2 h; the “Tmax, Total R-pio” value came to 2 h; the “Tmax, Total S-pio” value is 2 h.
Take `CCc1ccc(CCOc2ccc(CC3SC(=O)NC3=O)cc2)nc1` (centres unmarked) [Pioglitazone HCl Salt, pioglitazone hydrochloride, reference compound]: the “Solubility (in words)” value in series [3] was “practically insoluble”. The solubility at 48 h is 2880 µg/mL in series [3] (pH 0.6, aqueous buffer); 4000 µg/mL in series [3] (pH 0.7, aqueous buffer); 670 µg/mL in series [3] (pH 1.2, simulated gastric fluid); 440 µg/mL in series [3] (setting [7]); 30 µg/mL in series [3] (pH 3, aqueous buffer); below 30 µg/mL in series [3] (pH 4.5, aqueous buffer). In addition, the solubility at 48 h was below 30 µg/mL in series [3] (pH 4.6, aqueous buffer); below 30 µg/mL in series [3] (pH 5.6, aqueous buffer); below 30 µg/mL in series [3] (pH 6.6, aqueous buffer); below 30 µg/mL in series [3] (pH 7.6, aqueous buffer).
Consider `[2H]Cl.[2H]N1C(=O)S[C@]([2H])(Cc2ccc(OCCc3ccc(CC)cn3)cc2)C1=O` [deuterium-enriched (R)-pioglitazone], for which the Solubility in series [4] (2-propanol) was 500 µg/mL; in series [4] (3-pentanone), 500 µg/mL; in series [4] (Acetone), 500 µg/mL; in series [4] (Chloroform) it was 2000 µg/mL; in series [4] (DMSO) it was 225900 µg/mL; in series [4] (Ethanol), 4400 µg/mL. Moreover, the Solubility was below 100 µg/mL in series [4] (Ethyl acetate); 45000 µg/mL in series [4] (Methanol); 46400 µg/mL in series [4] (N,N-dimethylformamide); 1800 µg/mL in series [4] (Tetrahydrofuran); 7700 µg/mL in series [4] (Water); below 100 µg/mL in series [4] (tert-butyl methyl ether). Further, the Solubility in series [3] (Acetate Buffer, filtered mother liquor pH 4.4) was below 50 µg/mL; in series [3] (Phosphate Buffer, filtered mother liquor pH 6.5), below 50 µg/mL; in series [3] (Phosphate Buffer, filtered mother liquor pH 7.4), below 50 µg/mL; in series [3] (Water, filtered mother liquor pH 0.4), 1600 µg/mL; in series [3] (Water, filtered mother liquor pH 0.6), 3010 µg/mL; in series [3] (Water, filtered mother liquor pH 0.8), 3300 µg/mL. For the same compound, the Solubility in series [3] (Water, filtered mother liquor pH 1.4) was 4540 µg/mL; in series [3] (setting [6]) it was 2580 µg/mL; in series [3] (Water, filtered mother liquor pH 2.4) it was 390 µg/mL; in series [3] (Water, filtered mother liquor pH 3.7) it was 50 µg/mL; in series [3] (Water, filtered mother liquor pH 6.8), below 50 µg/mL. For the same compound, in series [3] (above pH 4), the “Solubility (in words)” value is “practically insoluble”.
As for `[2H][C@]1(Cc2ccc(OCCc3ccc(CC)cn3)cc2)SC(=O)NC1=O` [deuterium-enriched (R)-pioglitazone], the solubility at 48 h is 2330 µg/mL in series [3] (pH 0.5, aqueous buffer); 2600 µg/mL in series [3] (pH 0.6, aqueous buffer); 3270 µg/mL in series [3] (pH 0.7, aqueous buffer); 3770 µg/mL in series [3] (pH 0.8, aqueous buffer); 5250 µg/mL in series [3] (pH 1.4, simulated gastric fluid); 3470 µg/mL in series [3] (setting [7]). Besides, the solubility at 48 h in series [3] (pH 3, aqueous buffer) was 200 µg/mL; in series [3] (pH 5.7, aqueous buffer), below 50 µg/mL. The “Solubility (in words)” value in series [3] (pH 4) was “practically insoluble”. Also, the Solubility in series [5] (organic solvent or mixture, DMSO) is above 50000 µg/mL; in series [5] (organic solvent or mixture, Dichloromethane), 5000 to 10000 µg/mL; in series [5] (organic solvent or mixture, Ethanol) it was 5000 to 10000 µg/mL; in series [5] (organic solvent or mixture, Ethyl acetate) it was 5000 to 10000 µg/mL; in series [5] (organic solvent or mixture, Methanol) it was around 50000 µg/mL; in series [5] (organic solvent or mixture, N,N-dimethylformamide) it was around 50000 µg/mL. Further, the Solubility in series [5] (organic solvent or mixture, Tetrahydrofuran) lay in the range of 5000 to 10000 µg/mL; in series [5] (organic solvent or mixture, Toluene), 5000 to 10000 µg/mL; in series [5] (Water), 5000 to 10000 µg/mL.

These data come from patent US11319313B2, “Crystalline forms of deuterium-enriched pioglitazone” (Poxel SA, priority 2020, dated 2022).
